Experimental data as given in publication PMC7543951 (Molecular cell, 2020).

Target: T1, ROR1 pseudokinase domain (Homo sapiens, UniProt Q01973)
T1 sequence (Q01973 457-752): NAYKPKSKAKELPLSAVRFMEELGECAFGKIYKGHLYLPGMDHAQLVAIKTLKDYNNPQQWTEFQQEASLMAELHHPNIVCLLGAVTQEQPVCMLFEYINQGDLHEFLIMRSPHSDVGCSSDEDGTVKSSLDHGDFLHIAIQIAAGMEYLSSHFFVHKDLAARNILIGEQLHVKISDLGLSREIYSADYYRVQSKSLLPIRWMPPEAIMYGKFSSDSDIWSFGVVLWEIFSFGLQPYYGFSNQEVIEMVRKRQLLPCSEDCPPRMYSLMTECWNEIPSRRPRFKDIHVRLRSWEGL
Test: DSF concentration series
Assay type: binding

- IC50: ~1 µM
SMILES: Cc1ccc(C(=O)Nc2ccc(CN3CCN(C)CC3)c(C(F)(F)F)c2)cc1C#Cc1cnc2[nH]ncc2c1 [GZD824]
